How the values were obtained:
Homo sapiens = assay: (§1) Pharmacokinetic parameters for Zolmitriptan following oral administration of Zolmitriptan tablets to subjects with different healthy conditions.; assay type: ADME, organism-based; conditions: in vivo
[1] = as §1; assay type: ADME, organism-based; conditions: human, in vivo

CN(C)CCc1c[nH]c2ccc(C[C@H]3COC(=O)N3)cc12 [ZOLMITRIPTAN]
Tmax (Homo sapiens): 3 hr [middle of 4 runs]
Vd (Homo sapiens): 7 L/kg
CL/F [1]: 31.5 mL/min/kg
dose excreted ([1]; read-out: Excretion): 8%

— ChEMBL document CHEMBL3832061
